Measurements from patent publication US20230085307A1, “PYRIDAZINONE COMPOUND AND HERBICIDE” (NISSAN CHEMICAL CORPORATION, priority 2019, published 2023).

What was measured:
[1] = system: late watergrass; test: Test Example 1: herbicidal activity, application before weed generation under submerged conditions (Table 16, symbol A); assay type: in vivo, late watergrass (Echinochloa oryzicola); conditions: amount of applied herbicide 320 g/ha
How it was run: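 Submerged Wagner pots (alluvial soil, 4 cm water) sown with weed seeds and planted with 2.5-leaf rice seedlings; emulsifiable concentrate diluted in water applied to water surface on sowing day. Held in greenhouse at 25-30 °C; injury scored 0-5 by herbicidal rate after three weeks.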

[2] = system: late watergrass; test: Test Example 2: herbicidal activity, application during weed generation under submerged conditions (Table 17, symbol A); assay type: in vivo, late watergrass (Echinochloa oryzicola); conditions: AAH 320 g/ha; application during weed generation, submerged conditions
How it was run: (§1)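 Herbicide emulsion, diluted with water to the chosen amount, is applied onto 4 cm floodwater over alluvial soil where the weeds were co-sown and raised at 25–30° C. Application timing: 1–2 leaves. Assessment: three weeks afterwards.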

[3] = system: Japanese bulrush; test: Test Example 2: herbicidal activity, application during weed generation under submerged conditions (Table 17, symbol B); assay type: in vivo, Japanese bulrush (Schoenoplectus juncoides); conditions: AAH 320 g/ha; application during weed generation, submerged conditions
How it was run: as §1

[4] = system: oval-leafed pondweed; test: Test Example 2: herbicidal activity, application during weed generation under submerged conditions (Table 17, symbol C); assay type: in vivo, oval-leafed pondweed (Monochoria vaginalis); conditions: AAH 320 g/ha; application during weed generation, submerged conditions
How it was run: as §1

[5] = system: wild oat; test: Test Example 4: herbicidal effect by soil treatment (Table 19, symbol I); assay type: in vivo, wild oat (Avena fatua); conditions: amount of applied herbicide 320 g/ha
How it was run: (§2)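 Herbicidal effect was rated 3 weeks after treatment, using the scoring criteria of an earlier test. The compound, formulated as an emulsion and diluted in water to a set herbicide amount, had been sprayed uniformly on soil over freshly sown seeds. Growth took place in a greenhouse at 25° C. to 30° C.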

[6] = system: blackgrass; test: Test Example 4: herbicidal effect by soil treatment (Table 19, symbol J); assay type: in vivo, blackgrass (Alopecurus myosuroides); conditions: amount of applied herbicide 320 g/ha
How it was run: as §2

[7] = system: Italian ryegrass; test: Test Example 4: herbicidal effect by soil treatment (Table 19, symbol K); assay type: in vivo, Italian ryegrass (Lolium multiflorum); conditions: amount of applied herbicide 320 g/ha
How it was run: as §2

[8] = system: lambsquarters; test: Test Example 4: herbicidal effect by soil treatment (Table 19, symbol O); assay type: in vivo, lambsquarters (Chenopodium album); conditions: amount of applied herbicide 320 g/ha
How it was run: as §2

[9] = system: chickweed; test: Test Example 4: herbicidal effect by soil treatment (Table 19, symbol P); assay type: in vivo, common chickweed (Stellaria media); conditions: amount of applied herbicide 320 g/ha
How it was run: as §2

[10] = system: false cleavers; test: Test Example 4: herbicidal effect by soil treatment (Table 19, symbol Q); assay type: in vivo, false cleavers (Galium spurium); conditions: amount of applied herbicide 320 g/ha
How it was run: as §2

[11] = system: persian speedwell; test: Test Example 4: herbicidal effect by soil treatment (Table 19, symbol R); assay type: in vivo, Persian speedwell (Veronica persica); conditions: amount of applied herbicide 320 g/ha
How it was run: as §2

[12] = system: southern crabgrass; test: Test Example 5: herbicidal effect by foliage application, plastic box (Table 20, symbol F); assay type: in vivo, southern crabgrass (Digitaria ciliaris); conditions: foliage application, 320 g/ha, three weeks after application
How it was run: (§3)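 Foliar spray test: emulsion formulation diluted in water to a set application rate, sprayed onto 14-day-old plants raised in diluvial soil at 25° C to 30° C under glass. Both herbicidal effect and crop effect rated visually three weeks later.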

[13] = system: blackgrass; test: Test Example 5: herbicidal effect by foliage application, plastic box (Table 20, symbol J); assay type: in vivo, blackgrass (Alopecurus myosuroides); conditions: foliage application, 320 g/ha, three weeks after application
How it was run: as §3

[14] = system: Italian ryegrass; test: Test Example 5: herbicidal effect by foliage application, plastic box (Table 20, symbol K); assay type: in vivo, Italian ryegrass (Lolium multiflorum); conditions: foliage application, 320 g/ha, three weeks after application
How it was run: as §3

[15] = system: velvetleaf; test: Test Example 5: herbicidal effect by foliage application, plastic box (Table 20, symbol M); assay type: in vivo, velvetleaf (Abutilon theophrasti); conditions: foliage application, 320 g/ha, three weeks after application
How it was run: as §3

[16] = system: redroot pigweed; test: Test Example 5: herbicidal effect by foliage application, plastic box (Table 20, symbol N); assay type: in vivo, redroot pigweed (Amaranthus retroflexus); conditions: foliage application, 320 g/ha, three weeks after application
How it was run: as §3

[17] = system: chickweed; test: Test Example 5: herbicidal effect by foliage application, plastic box (Table 20, symbol P); assay type: in vivo, common chickweed (Stellaria media); conditions: foliage application, 320 g/ha, three weeks after application
How it was run: as §3

[18] = system: false cleavers; test: Test Example 5: herbicidal effect by foliage application, plastic box (Table 20, symbol Q); assay type: in vivo, false cleavers (Galium spurium); conditions: foliage application, 320 g/ha, three weeks after application
How it was run: as §3

Row | Compound | Herbicidal effect, A: late watergrass [1] | herbicidal effect rating, A: late watergrass [2] | herbicidal effect rating, B: Japanese bulrush [3] | herbicidal effect rating, C: oval-leafed pondweed [4] | F: southern crabgrass, herbicidal effect grade [12] | J: blackgrass, herbicidal effect grade [13] | K: Italian ryegrass, herbicidal effect grade [14] | M: velvetleaf, herbicidal effect grade [15] | N: redroot pigweed, herbicidal effect grade [16] | P: chickweed, herbicidal effect grade [17] | Q: false cleavers, herbicidal effect grade [18] | I: wild oat, herbicidal effect grade [5] | J: blackgrass, herbicidal effect grade [6] | K: Italian ryegrass, herbicidal effect grade [7] | O: lambsquarters, herbicidal effect grade [8] | P: chickweed, herbicidal effect grade [9] | Q: false cleavers, herbicidal effect grade [10] | R: persian speedwell, herbicidal effect grade [11] | also measured
1 | CCCC(=O)Oc1c(C)nn(C)c(=O)c1-c1c(-c2ccc3c(c2)OCCO3)sc2cc(F)ccc12 [3-014] | 5 (Herbicidal rate of 90% or more (almost completely withered)) | 3 (Herbicidal rate of 40% or more and less than 70%) | 0 (Herbicidal rate of 5% or less (almost no effect)) | 5 (Herbicidal rate of 90% or more (almost completely withered)) | 3 (Herbicidal rate of 40% or more and less than 70%) | 1 (Herbicidal rate of 5% or more and less than 20%) | 1 (Herbicidal rate of 5% or more and less than 20%) | 5 (Herbicidal rate of 90% or more (almost completely withered)) | 5 (Herbicidal rate of 90% or more (almost completely withered)) | 5 (Herbicidal rate of 90% or more (almost completely withered)) | 4 (Herbicidal rate of 70% or more and less than 90%) | – | – | – | – | – | – | – | herbicidal effect, I: wild oat [5]: 0 (Herbicidal rate of 5% or less (almost no effect)); herbicidal effect, J: blackgrass [6]: 0 (Herbicidal rate of 5% or less (almost no effect)); herbicidal effect, K: Italian ryegrass [7]: 0 (Herbicidal rate of 5% or less (almost no effect)); herbicidal effect, O: lambsquarters [8]: 4 (Herbicidal rate of 70% or more and less than 90%); herbicidal effect, P: chickweed [9]: 4 (Herbicidal rate of 70% or more and less than 90%); herbicidal effect, Q: false cleavers [10]: 2 (Herbicidal rate of 20% or more and less than 40%); herbicidal effect, R: persian speedwell [11]: 5 (Herbicidal rate of 90% or more (almost completely withered))
2 | CCOc1ccccc1-c1sc2cc(C)ccc2c1-c1c(O)c(C)nn(C)c1=O [3-053] | 5 (Herbicidal rate of 90% or more (almost completely withered)) | 3 (Herbicidal rate of 40% or more and less than 70%) | 3 (Herbicidal rate of 40% or more and less than 70%) | 3 (Herbicidal rate of 40% or more and less than 70%) | 5 (Herbicidal rate of 90% or more (almost completely withered)) | 5 (Herbicidal rate of 90% or more (almost completely withered)) | 5 (Herbicidal rate of 90% or more (almost completely withered)) | 5 (Herbicidal rate of 90% or more (almost completely withered)) | 5 (Herbicidal rate of 90% or more (almost completely withered)) | 5 (Herbicidal rate of 90% or more (almost completely withered)) | 5 (Herbicidal rate of 90% or more (almost completely withered)) | 4 (Herbicidal rate of 70% or more and less than 90%) | 3 (Herbicidal rate of 40% or more and less than 70%) | 4 (Herbicidal rate of 70% or more and less than 90%) | 4 (Herbicidal rate of 70% or more and less than 90%) | 4 (Herbicidal rate of 70% or more and less than 90%) | 5 (Herbicidal rate of 90% or more (almost completely withered)) | 5 (Herbicidal rate of 90% or more (almost completely withered)) | –
3 | CCOc1cc(F)ccc1-c1sc2cc(C)ccc2c1-c1c(O)c(C)nn(C)c1=O [3-057] | 5 (Herbicidal rate of 90% or more (almost completely withered)) | 4 (Herbicidal rate of 70% or more and less than 90%) | 4 (Herbicidal rate of 70% or more and less than 90%) | 3 (Herbicidal rate of 40% or more and less than 70%) | 5 (Herbicidal rate of 90% or more (almost completely withered)) | 5 (Herbicidal rate of 90% or more (almost completely withered)) | 5 (Herbicidal rate of 90% or more (almost completely withered)) | 5 (Herbicidal rate of 90% or more (almost completely withered)) | 5 (Herbicidal rate of 90% or more (almost completely withered)) | 5 (Herbicidal rate of 90% or more (almost completely withered)) | 5 (Herbicidal rate of 90% or more (almost completely withered)) | 3 (Herbicidal rate of 40% or more and less than 70%) | 4 (Herbicidal rate of 70% or more and less than 90%) | 2 (Herbicidal rate of 20% or more and less than 40%) | 5 (Herbicidal rate of 90% or more (almost completely withered)) | 5 (Herbicidal rate of 90% or more (almost completely withered)) | 3 (Herbicidal rate of 40% or more and less than 70%) | 5 (Herbicidal rate of 90% or more (almost completely withered)) | –
4 | CCCC(=O)Oc1c(C)nn(C)c(=O)c1-c1c(-c2ccc(F)cc2OCC)sc2cc(C)ccc12 [3-058] | 5 (Herbicidal rate of 90% or more (almost completely withered)) | 4 (Herbicidal rate of 70% or more and less than 90%) | 5 (Herbicidal rate of 90% or more (almost completely withered)) | 4 (Herbicidal rate of 70% or more and less than 90%) | 5 (Herbicidal rate of 90% or more (almost completely withered)) | 5 (Herbicidal rate of 90% or more (almost completely withered)) | 5 (Herbicidal rate of 90% or more (almost completely withered)) | 5 (Herbicidal rate of 90% or more (almost completely withered)) | 4 (Herbicidal rate of 70% or more and less than 90%) | 5 (Herbicidal rate of 90% or more (almost completely withered)) | 5 (Herbicidal rate of 90% or more (almost completely withered)) | 0 (Herbicidal rate of 5% or less (almost no effect)) | 3 (Herbicidal rate of 40% or more and less than 70%) | 0 (Herbicidal rate of 5% or less (almost no effect)) | 5 (Herbicidal rate of 90% or more (almost completely withered)) | 4 (Herbicidal rate of 70% or more and less than 90%) | 1 (Herbicidal rate of 5% or more and less than 20%) | 4 (Herbicidal rate of 70% or more and less than 90%) | –
